# Laboratory results published in ChEMBL document CHEMBL1909046, “DrugMatrix in vitro pharmacology data”.
# Columns and labels:
# [1] = target: Sodium-dependent noradrenaline transporter (Homo sapiens, UniProt P23975); assay: DRUGMATRIX: Norepinephrine Transporter radioligand binding (ligand: [125I] RTI-55); type: cell membranes, MDCK, Membrane; settings: Not Active = under 50% inhibition at 10 µM
# [2] = DRUGMATRIX: beta-Lactamase enzyme inhibition (substrate: Nitrocefin); design: species or system Bacillus cereus; settings: Not Active = under 50% inhibition at 10 µM
# [3] = target: 5-hydroxytryptamine receptor 2B (Homo sapiens, UniProt P41595); type: cell membranes, CHO-K1, Membrane; further: in other assays of this panel Not Active means under 50% inhibition at 10 µM
# Chain of 5-hydroxytryptamine receptor 2B (P41595 whole entry): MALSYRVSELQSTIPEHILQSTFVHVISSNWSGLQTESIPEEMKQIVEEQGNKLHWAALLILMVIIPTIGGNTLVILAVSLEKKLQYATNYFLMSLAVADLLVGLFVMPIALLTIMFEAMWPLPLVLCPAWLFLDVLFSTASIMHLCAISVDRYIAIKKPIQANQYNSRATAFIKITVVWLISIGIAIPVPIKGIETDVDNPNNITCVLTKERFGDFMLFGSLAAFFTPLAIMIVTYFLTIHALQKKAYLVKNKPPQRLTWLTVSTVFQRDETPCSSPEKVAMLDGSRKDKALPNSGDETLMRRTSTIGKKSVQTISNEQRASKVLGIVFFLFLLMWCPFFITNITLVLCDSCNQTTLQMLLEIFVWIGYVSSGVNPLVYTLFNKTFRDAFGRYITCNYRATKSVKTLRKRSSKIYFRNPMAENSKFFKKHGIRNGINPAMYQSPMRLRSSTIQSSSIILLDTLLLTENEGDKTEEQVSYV
# Thromboxane-A synthase = target: T1, Thromboxane-A synthase (Homo sapiens, UniProt P24557); assay: biochemical; type: tissue-based, Platelet;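 further: enzyme inhibition assay with PGH2 supplied as substrate; in other assays of this panel Not Active means under 50% inhibition at 10 µM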
# T1 sequence (P24557 whole entry): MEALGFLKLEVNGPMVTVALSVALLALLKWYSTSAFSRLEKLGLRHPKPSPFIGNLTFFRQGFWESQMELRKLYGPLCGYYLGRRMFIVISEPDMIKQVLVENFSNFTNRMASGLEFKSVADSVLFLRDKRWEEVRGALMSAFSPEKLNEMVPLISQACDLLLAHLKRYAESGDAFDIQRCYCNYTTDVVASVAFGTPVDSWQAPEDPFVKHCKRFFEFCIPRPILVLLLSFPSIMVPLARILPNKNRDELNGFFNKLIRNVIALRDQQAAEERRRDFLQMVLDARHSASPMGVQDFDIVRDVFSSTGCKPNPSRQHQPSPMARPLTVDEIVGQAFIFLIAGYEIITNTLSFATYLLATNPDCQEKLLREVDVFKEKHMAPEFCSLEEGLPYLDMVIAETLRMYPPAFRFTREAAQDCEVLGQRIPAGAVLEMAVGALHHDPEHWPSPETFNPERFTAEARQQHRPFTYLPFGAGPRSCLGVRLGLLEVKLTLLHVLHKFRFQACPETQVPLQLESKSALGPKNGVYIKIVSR
# [4] = target: T2, Nitric oxide synthase, inducible (Mus musculus, UniProt P29477); design: species or system Escherichia coli;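 further: inhibition of iNOS enzyme activity measured with L-arginine as substrate; in other assays of this panel Not Active means under 50% inhibition at 10 µM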
# T2 sequence (P29477 whole entry): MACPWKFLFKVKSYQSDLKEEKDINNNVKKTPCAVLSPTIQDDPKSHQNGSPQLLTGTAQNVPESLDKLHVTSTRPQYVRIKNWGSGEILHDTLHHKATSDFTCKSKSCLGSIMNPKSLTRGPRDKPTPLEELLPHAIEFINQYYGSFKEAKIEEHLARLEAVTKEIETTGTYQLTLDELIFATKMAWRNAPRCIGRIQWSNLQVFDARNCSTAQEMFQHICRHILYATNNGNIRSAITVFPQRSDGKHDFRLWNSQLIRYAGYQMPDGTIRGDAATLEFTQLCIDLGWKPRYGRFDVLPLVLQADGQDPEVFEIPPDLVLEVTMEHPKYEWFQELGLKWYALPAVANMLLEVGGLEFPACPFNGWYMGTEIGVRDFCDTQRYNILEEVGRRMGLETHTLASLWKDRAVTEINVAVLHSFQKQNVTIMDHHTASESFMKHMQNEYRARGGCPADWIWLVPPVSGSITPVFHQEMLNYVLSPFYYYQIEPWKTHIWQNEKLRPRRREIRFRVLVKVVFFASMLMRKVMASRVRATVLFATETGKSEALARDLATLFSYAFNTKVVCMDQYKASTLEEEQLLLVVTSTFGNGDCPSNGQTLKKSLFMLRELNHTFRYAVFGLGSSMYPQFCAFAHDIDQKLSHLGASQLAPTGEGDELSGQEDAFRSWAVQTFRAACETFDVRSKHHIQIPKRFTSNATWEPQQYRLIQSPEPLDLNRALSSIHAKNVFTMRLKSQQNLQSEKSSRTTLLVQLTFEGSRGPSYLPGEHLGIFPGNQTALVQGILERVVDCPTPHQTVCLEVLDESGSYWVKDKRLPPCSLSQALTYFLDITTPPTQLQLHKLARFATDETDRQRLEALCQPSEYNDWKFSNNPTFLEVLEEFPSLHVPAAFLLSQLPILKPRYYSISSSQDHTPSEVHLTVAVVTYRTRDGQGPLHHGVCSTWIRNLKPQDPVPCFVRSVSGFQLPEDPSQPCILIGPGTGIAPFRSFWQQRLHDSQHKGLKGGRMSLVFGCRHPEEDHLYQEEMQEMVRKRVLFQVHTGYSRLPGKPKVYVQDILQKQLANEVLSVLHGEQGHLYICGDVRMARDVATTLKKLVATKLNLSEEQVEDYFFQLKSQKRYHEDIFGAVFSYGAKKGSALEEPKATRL
# [5] = target: Tyrosine-protein kinase Lck (Homo sapiens, UniProt P06239); assay: DRUGMATRIX: Protein Tyrosine Kinase, LCK enzyme inhibition (substrate: Poly(Glu:Tyr)); type: cell-based, Insect cells; settings: Not Active = under 50% inhibition at 10 µM
# Chain of Tyrosine-protein kinase Lck (P06239 whole entry): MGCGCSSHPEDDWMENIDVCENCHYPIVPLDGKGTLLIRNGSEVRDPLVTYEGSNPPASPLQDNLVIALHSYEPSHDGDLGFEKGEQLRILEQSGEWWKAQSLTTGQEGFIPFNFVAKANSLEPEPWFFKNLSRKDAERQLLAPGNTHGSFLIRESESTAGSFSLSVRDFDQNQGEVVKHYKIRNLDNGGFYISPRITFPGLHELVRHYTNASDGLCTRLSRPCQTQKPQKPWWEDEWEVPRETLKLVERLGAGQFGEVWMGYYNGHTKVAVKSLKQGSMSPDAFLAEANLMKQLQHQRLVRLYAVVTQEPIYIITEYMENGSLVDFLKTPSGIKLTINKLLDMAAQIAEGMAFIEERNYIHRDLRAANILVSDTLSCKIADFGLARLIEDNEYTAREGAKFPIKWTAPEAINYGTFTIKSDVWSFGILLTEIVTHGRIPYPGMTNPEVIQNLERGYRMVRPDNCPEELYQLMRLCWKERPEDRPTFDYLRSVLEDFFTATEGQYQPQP
# Chain of Sodium-dependent noradrenaline transporter (P23975 whole entry): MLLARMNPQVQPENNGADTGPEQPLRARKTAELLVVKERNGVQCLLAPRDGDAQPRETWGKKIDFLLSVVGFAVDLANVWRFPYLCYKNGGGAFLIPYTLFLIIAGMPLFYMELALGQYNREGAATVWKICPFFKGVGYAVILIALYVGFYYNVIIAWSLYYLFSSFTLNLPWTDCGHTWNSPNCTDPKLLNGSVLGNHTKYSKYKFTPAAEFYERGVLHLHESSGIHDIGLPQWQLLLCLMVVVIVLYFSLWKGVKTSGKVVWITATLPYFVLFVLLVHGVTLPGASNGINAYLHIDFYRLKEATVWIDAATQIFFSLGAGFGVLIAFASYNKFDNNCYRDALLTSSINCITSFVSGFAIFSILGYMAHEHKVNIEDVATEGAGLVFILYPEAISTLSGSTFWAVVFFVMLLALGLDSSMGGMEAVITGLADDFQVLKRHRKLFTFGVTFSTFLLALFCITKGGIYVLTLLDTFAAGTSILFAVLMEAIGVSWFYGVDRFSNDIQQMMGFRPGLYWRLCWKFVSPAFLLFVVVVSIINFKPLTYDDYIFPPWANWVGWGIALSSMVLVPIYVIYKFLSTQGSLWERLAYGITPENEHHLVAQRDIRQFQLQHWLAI
Compound,IC50 ([1]; mdck),IC50 [2],Ki [2],IC50 ([3]; cho-k1),IC50 (Thromboxane-A synthase; platelet),IC50 [4],IC50 ([5]; insect cells),IC50 ([1]; read-out: IC50) [nM],Ki ([1]; read-out: Ki) [nM],IC50 ([3]; read-out: IC50) [nM],Ki ([3]; read-out: Ki) [nM],IC50 (Thromboxane-A synthase; read-out: IC50) [nM],IC50 ([5]; read-out: IC50) [nM],Ki ([1]; mdck),Ki ([3]; cho-k1),Ki (Thromboxane-A synthase; platelet),Ki [4]
CC(C)(C)NCC(O)c1cc(Cl)c(N)c(Cl)c1 (stereo not drawn) [CLENBUTEROL],Not Active,Not Active,Not Active,Not Active,Not Active,Not Active,Not Active,–,–,–,–,–,–,–,–,–,–
CC(O)CO (stereo not drawn) [PROPYLENE GLYCOL],Not Active,Not Active,Not Active,Not Active,Not Active,Not Active,Not Active,–,–,–,–,–,–,–,–,–,–
CC1Cc2ccccc2N1NC(=O)c1ccc(Cl)c(S(N)(=O)=O)c1 (stereo not drawn) [INDAPAMIDE],Not Active,Not Active,Not Active,Not Active,Not Active,Not Active,Not Active,–,–,–,–,–,–,–,–,–,–
c1ccc(Nc2ccc(Nc3ccccc3)cc2)cc1,–,Not Active,Not Active,–,Not Active,Not Active,Not Active,786,780,142,90,–,–,–,–,–,–
COc1cc2nc(N3CCN(C(=O)C4COc5ccccc5O4)CC3)nc(N)c2cc1OC (stereo not drawn) [DOXAZOSIN],Not Active,Not Active,Not Active,–,Not Active,Not Active,Not Active,–,–,–,–,–,–,–,–,–,–
CCOc1ccc(NC(C)=O)cc1 [PHENACETIN],Not Active,Not Active,Not Active,Not Active,Not Active,Not Active,Not Active,–,–,–,–,–,–,–,–,–,–
CN(C)CCCN1c2ccccc2Sc2ccc(Cl)cc21 [CHLORPROMAZINE],–,Not Active,Not Active,–,Not Active,Not Active,Not Active,–,–,–,–,–,–,–,–,–,–
CC(C)[C@H]1C(=O)N2CCC[C@H]2[C@]2(O)O[C@](NC(=O)[C@@H]3C=C4c5cccc6[nH]cc(c56)C[C@H]4N(C)C3)(C(C)C)C(=O)N12 [ERGOCORNINE],Not Active,Not Active,Not Active,–,–,Not Active,Not Active,–,–,11,6.86,1990,–,–,–,–,–
CC(C)(Oc1ccc(Cl)cc1)C(=O)O [CLOFIBRIC ACID],Not Active,Not Active,Not Active,Not Active,Not Active,Not Active,Not Active,–,–,–,–,–,–,–,–,–,–
CCC(C)n1ncn(-c2ccc(N3CCN(c4ccc(OCC5COC(Cn6cncn6)(c6ccc(Cl)cc6Cl)O5)cc4)CC3)cc2)c1=O (stereo not drawn) [ITRACONAZOLE],Not Active,Not Active,Not Active,Not Active,Not Active,Not Active,Not Active,–,–,–,–,–,–,–,–,–,–
O=c1oc2ccccc2c(O)c1Cc1c(O)c2ccccc2oc1=O [DICUMAROL],Not Active,Not Active,Not Active,Not Active,Not Active,Not Active,Not Active,–,–,–,–,–,–,–,–,–,–
"Cc1onc(O)c1CC(N)C(=O)O (racemic) [(R,S)-AMPA]",Not Active,Not Active,Not Active,Not Active,Not Active,Not Active,Not Active,–,–,–,–,–,–,–,–,–,–
CC1=C2C(=CO[C@H](C)[C@H]2C)C(O)=C(C(=O)O)C1=O [CITRININ],Not Active,Not Active,Not Active,Not Active,Not Active,Not Active,Not Active,–,–,–,–,–,–,–,–,–,–
Nc1nc2c(ncn2COCCO)c(=O)[nH]1 [ACYCLOVIR],Not Active,Not Active,Not Active,Not Active,Not Active,Not Active,Not Active,–,–,–,–,–,–,–,–,–,–
CCOC(=O)C1=C(COCCN)NC(C)=C(C(=O)OC)C1c1ccccc1Cl (stereo not drawn) [AMLODIPINE],Not Active,Not Active,Not Active,Not Active,Not Active,Not Active,Not Active,–,–,–,–,–,–,–,–,–,–
O=C1CC[C@@H](N2C(=O)c3ccccc3C2=O)C(=O)N1,Not Active,Not Active,Not Active,Not Active,Not Active,Not Active,Not Active,–,–,–,–,–,–,–,–,–,–
Cc1ccc(N(CC2=NCCN2)c2cccc(O)c2)cc1 [PHENTOLAMINE],Not Active,Not Active,Not Active,–,Not Active,Not Active,Not Active,–,–,–,–,–,–,–,–,–,–
CC(C)C(Br)C(=O)NC(N)=O (stereo not drawn) [BROMISOVALUM],Not Active,Not Active,Not Active,Not Active,Not Active,Not Active,Not Active,–,–,–,–,–,–,–,–,–,–
Cc1ccccc1N1C(=O)c2cc(S(N)(=O)=O)c(Cl)cc2NC1C (stereo not drawn) [METOLAZONE],Not Active,Not Active,Not Active,Not Active,Not Active,Not Active,Not Active,–,–,–,–,–,–,–,–,–,–
C1CCC(C(CC2CCCCN2)C2CCCCC2)CC1 (stereo not drawn) [PERHEXILINE],–,Not Active,Not Active,Not Active,Not Active,Not Active,Not Active,3290,3270,–,–,–,–,–,–,–,–
CC(C)CN(C[C@@H](O)[C@H](Cc1ccccc1)NC(=O)O[C@H]1CCOC1)S(=O)(=O)c1ccc(N)cc1,Not Active,Not Active,Not Active,Not Active,–,Not Active,Not Active,–,–,–,–,6730,–,–,–,–,–
Cc1ccc2cc3c(ccc4ccccc43)c3c2c1CC3 [3-METHYLCHOLANTHRENE],–,Not Active,Not Active,Not Active,Not Active,Not Active,–,29700,29400,–,–,–,55500,–,–,–,–
Nc1nc2c(ncn2CCC(CO)CO)c(=O)[nH]1 [PENCICLOVIR],Not Active,Not Active,Not Active,Not Active,Not Active,Not Active,Not Active,–,–,–,–,–,–,–,–,–,–
CN(C)C(=O)Oc1cc(OC(=O)N(C)C)cc(C(O)CNC(C)(C)C)c1 (stereo not drawn) [BAMBUTEROL],Not Active,Not Active,Not Active,Not Active,Not Active,Not Active,Not Active,–,–,–,–,–,–,–,–,–,–
Nc1nc(N)nc(-c2cc(Cl)ccc2Cl)n1.O=C(O)/C=C\C(=O)O [IRSOGLADINE MALEATE],Not Active,Not Active,Not Active,Not Active,Not Active,Not Active,Not Active,–,–,–,–,–,–,–,–,–,–
CADMIUM ACETATE,Not Active,Not Active,Not Active,Not Active,Not Active,Not Active,–,–,–,–,–,–,–,Not Active,Not Active,Not Active,Not Active
CNCCCN1c2ccccc2CCc2ccccc21 [DESIPRAMINE],–,Not Active,Not Active,Not Active,Not Active,Not Active,Not Active,–,–,–,–,–,–,–,–,–,–
C[C@]12CC[C@@H]3c4ccc(O)cc4CC[C@H]3[C@@H]1CCC2=O [ESTRONE],Not Active,Not Active,Not Active,–,Not Active,Not Active,Not Active,–,–,–,–,–,–,–,–,–,–
